Reference: patent US20260007673A1, “ROCK2 INHIBITORS FOR THE TREATMENT OF VIRAL INFECTIONS” (GRAVITON BIOSCIENCE BV, priority 2022, published 2026)

Key:
SARS-CoV-2 Delta variant = assay type: in vivo, mice; conditions: 100 and 300 mg/kg daily oral gavage
[1] = tested on: SARS-CoV-2 Omicron variant; assay type: in vivo, mice; conditions: 100 and 300 mg/kg daily oral gavage, 7, 14, 21 days (FIG. 15B)

With `Cn1c(C(=O)N2CC(F)(F)C2)cc2ccc(-c3nccc(Nc4ccc(-c5cn[nH]c5)cc4)n3)cc21` [Compound 2, (6-(4-((4-(1H-pyrazol-4-yl)phenyl)amino)pyrimidin-2-yl)-1-methyl-1H-indol-2-yl)(3,3-difluoroazetidin-1-yl)methanone] the “viral load in the lung” value (SARS-CoV-2 Delta variant) was “effect was observed” and the “viral load in the lung” value [1] was “effect was observed”.
